# Assay results published in article PMC10987949, “Inhibition of HIV-1 release by ADAM metalloproteinase inhibitors” (Frontiers in Microbiology, 2024).
# Entries after “also recorded” stand apart in the source; their conditions may differ. Where a SMILES comes first, the peptide text is derived from it. [ ]: non-standard residue; d: D form. The star is where a group is joined. Sta = CC(C)C[C@H](N)[C@@H](O)CC(=O)O; Isovaleryl = CC(C)CC(=O)*; 4Abz = Nc1ccc(C(=O)O)cc1; Cbz = O=C(OCc1ccccc1)*; CH2Cl = ClC*; NHOH = ON*
# Legend:
# [1] = system: CD62L shedding; test: Soluble CD62L ELISA, anti-CD3/PHA stimulated PBMC or CD4 T cells; type: cell-based, human; conditions: for Shedding inhibition Stimulated / inhibition at 10 µM: stimulated cells; for Shedding inhibition Stimulated / effect on CD62L shedding / soluble CD62L / inhibition at 10 µM: ELISA; for effect on CD62L shedding / soluble CD62L: stimulated PBMC or CD4 T cells; for inhibition at 10 µM: Homo sapiens; for effect on CD62L shedding from stimulated PBMC: titration of HAART compounds, concentration range tested
# Description: PBMC from de-identified healthy donors were obtained with informed consent from the Department of Transfusion Medicine, National Institutes of Health under Biological reagent Registry RD-14-IX-12 approved by NIH biological safety board. […] IL-2 was added at a final concentration of 20 U/mL. CD3 antibody okt3 was used at ~0.2 μg/mL final concentration. […] Supernatants were collected and assessed using either the CD62L or TNF-α Duo Set ELISA kit according to manufacturer’s instructions (R&D Systems, Inc.). The viability of cells treated with compounds was assessed by acridine orange / propidiom iodide (AO/PI Logosbio catalog F23001) staining using Luna-FL cell counter following the manufacture’s instruction.^2
# [2] = system: HIV-1BAL; test: HIV-1BAL infection of CD8-depleted PBMC, FACS (intracellular p24, CD4, CD62L); type: cell-based; conditions: for effect on HIV-1BAL infection (intracellular p24): day 7 post infection, compounds at 100 μM, GI254023X at 250 μM
# From the text: The use of healthy human peripheral blood mononuclear cells (PBMC) is approved by the Department of Transfusion Medicine at the Clinical Center of National Institutes of Health. The use of PBMC from HIV-1 infected individuals for the study was approved under protocol #02-I-0202 by the Institutional Review Board (IRB) of National Institutes of Health with written informed consent from all donors. Peripheral blood mononuclear cells (PBMCs) from anonymous healthy donors were isolated by Ficoll-Paque gradient, and cultured in RPMI 1640 supplemented with 10% FBS, 1%Penicillin/streptomycin, 1% HEPES buffer and 20 U/mL IL-2 (culture media); and stimulated with 0.2 μg/mL anti-CD3 antibody (okt3) for 2 days. CD8^+ T cells were depleted prior to infection using the Stemcell CD8 positive selection kit according to manufacturer’s instructions. CD8-depleted PBMCs were plated at 2×10^6 cells/ml in 48-well plates in 1 mL culture media with various inhibitors for 60 min prior to the addition of ~80 TCID50 HIV-1BAL or HIV-1LAI. Inhibitors were replenished during media change every 3 days. The infections were proceeded with or without inhibitors for 6 days or otherwise specified number of days and then analyzed by FACS staining using fluorescent labeled CD4-BV510, CD62L-APC and CD3-PEC7 antibodies (BD Biosciences). Cells were then washed and permeabilized with CytoFix/CytoPerm (BD Biosciences) solution before intracellular staining for HIV p24 antigen using FITC conjugated anti-p24 antibody clone KC57 (Beckman Coulter, catalog 6604665). All assays were performed with cell viabilities >80%. Replication competent HIV-1 viruses were obtained from the NIH AIDS Reagent Program^4, and expanded by infecting activated CD8-depleted PBMCs, and TCID50 was determined by p24 ELISA.
# [3] = system: CD62L shedding; test: Soluble CD62L ELISA, unstimulated PBMC; type: cell-based, human; conditions: non-stimulated cells, ELISA
# Description: PBMC from de-identified healthy donors were obtained with informed consent from the Department of Transfusion Medicine, National Institutes of Health under Biological reagent Registry RD-14-IX-12 approved by NIH biological safety board. CD8-depleted PBMCs, either stimulated or non-stimulated with 10 μg/mL phytohaemagglutinin (PHA) or anti-CD3 antibody (with or without conjugated beads), were plated at 2×10^6 cells/ml in 48 well plates in RPMI 1640 + 10%FBS (R10) to a final volume of 1 mL in each well. IL-2 was added at a final concentration of 20 U/mL. CD3 antibody okt3 was used at ~0.2 μg/mL final concentration. […] Supernatants were collected and assessed using either the CD62L or TNF-α Duo Set ELISA kit according to manufacturer's instructions (R&D Systems, Inc.). The viability of cells treated with compounds was assessed by acridine orange / propidiom iodide (AO/PI Logosbio catalog F23001) staining using Luna-FL cell counter following the manufacture's instruction.^2 […] Supplemental Figure 1. CD62L shedding from unstimulated PBMC. A) Soluble CD62L in the supernatant of unstimulated PBMC was measured By ELISA (R&D systems, Inc) after 24 hour treatment in the presence of 10 μM of […]), aminopeptidase (AP) protease inhibitors, respectively, or their untreated controls. Statistics were calculated using unpaired parametric student t-test between individual treatment and DMSO control. […] B) Viability of PBMC treated with 10-500 μM of MMP inhibitors for 24hours. […] Untreated DMSO AEBSF 3,4-Dichloroisocouman Granzyme B Inhibitor II Granzyme B Inhibitor IV Aprotinin […] 3 4 CD62L shedding from unstimulated PBMC Soluble CD62L (ng/ml) Inhibitor Class […] GI254023X 10 GI254023X 100 […] GI254023X 1000 GW280264X 10 GW280264X 100 […] GW280264X 1000 Marimastat 10 Marimastat 100 Marimastat 250 […]
Compound,Shedding inhibition Stimulated ([1]; 10 μM compound),inhibition at 10 µM ([1]; 10 μM compound),other results
"O=c1oc(Cl)c(Cl)c2ccccc12 [3,4-DCIC, 3,4-Dichloroisocouman]",− (0% inhibition),,effect on CD62L shedding / soluble CD62L [1]: significantly increased soluble CD62L concentration; also recorded: enhanced CD62L shedding; effect on HIV-1BAL infection (intracellular p24) [2]: did not enhance HIV-1 infection
NCCc1ccc(S(=O)(=O)F)cc1 [AEBSF],− (0% inhibition),,
"CC(C)ON([C@@H](C(=O)NO)C(C)C)S(=O)(=O)c1ccc(-c2ccccc2)cc1 [ARP 101, (2R)-2-[([1,1′-Biphenyl]-4-ylsulfonyl)(1-methylethoxy)amino]-N-hydroxy-3-methyl-butanamide]",,< 20%,
CC(C)C[C@H](NC(=O)[C@@H](O)[C@H](N)Cc1ccccc1)C(=O)O [Bestatin],,0%,
"CC(C)(C)OC(=O)N[C@H]1[C@@H]2CNC[C@@H]21 [CP-101537, N-(1a,5a,6a)-3-Azabicyclo[3.1.0]hex-6-yl-carbamic acid 1,1-dimethylethyl ester]",− (0% inhibition),,
"CC(C)(NS(=O)(=O)c1ccc(Oc2ccc(F)cc2)cc1)C(=O)NO [CP-471474, 2-[[[4-(4-Fluorophenoxy)phenyl]sulfonyl]amino]-N-hydrox y-2-methylpropanamide]",,0%,
"CC(C)C[C@@H](NC(=O)[C@@H]1CCCN1C(=O)CNC(=O)c1ccc(N)cc1)C(=O)N[C@@H](C)C(=O)NO [Compound 4-m-GPDLA, 4-aminobenzoyl-Gly-Pro-D-Leu-ala hydroxamic acid] (H-[4Abz]GP[dL]A-{NHOH})",− (0% inhibition),,
"OB(O)c1ccc2[nH]ccc2c1 [Compound 5-Indolylb, 5-indolylboronic acid]",,0%,
"CC1(c2ccccc2)NC(=O)NC1=O (stereo not shown) [Compound 5-m-5-p, 5-methyl-5-phenylhydantoin]",,0%,
CC(C)C[C@H](NC(=O)[C@H]1O[C@@H]1C(=O)O)C(=O)NCCCCN=C(N)N [Compound E64],− (0% inhibition),,
C[C@@H]1CCO[C@H]2Cn3cc(C(=O)NCc4ccc(F)cc4F)c(=O)c(O)c3C(=O)N12 [Doultegravir],,,"p24 staining in HIV-1BAL infection of PBMC ([2]; day 6, 0.5μM compounds): no significant staining"
C[C@H]1c2cccc(O)c2C(=O)C2=C(O)[C@]3(O)C(=O)C(C(N)=O)=C(O)[C@@H](N(C)C)[C@@H]3[C@@H](O)[C@@H]21 [Doxycycline],,0%,
CC[C@H](C)[C@H](NC(C)=O)C(=O)N[C@@H](CCC(=O)O)C(=O)N[C@H](C(=O)N[C@H](C=O)CC(=O)O)[C@@H](C)O [GrzB II] (Ac-IETD-aldehyde),− (0% inhibition),,
CC[C@H](C)[C@H](NC(C)=O)C(=O)N[C@@H](CCC(=O)O)C(=O)N1CCC[C@H]1C(=O)N[C@H](C=O)CC(=O)O [GrzB IV] (Ac-IEPD-aldehyde),− (0% inhibition),,
C[C@H](NC(=O)OCc1ccccc1)C(=O)N[C@@H](C)C(=O)N[C@@H](CC(=O)O)C(=O)CCl [GrzB I] (Cbz-Ala-Ala-Asp-CH2Cl),− (0% inhibition),,
NC(=O)CI [Iodoacetamide],− (0% inhibition),,
CC(=O)N[C@@H](CC(C)C)C(=O)N[C@@H](CC(C)C)C(=O)N[C@H](C=O)CCCNC(=N)N [Leupeptin],,0%,

Compound,Shedding inhibition Stimulated ([1]; 10 μM compound),inhibition at 10 µM ([1]; 10 μM compound),other results
"COc1ccc(S(=O)(=O)N(CC(=O)NO)CC(C)C)cc1 [NNGH, N-Isobutyl-N-(4-methoxyphenylsulfonyl)glycyl hydroxamic acid]",− (0% inhibition),,
"CCCC(C)NC(=O)c1ccc(Cl)c(Cl)c1 (stereo not shown) [NSC405020, 3,4-Dichloro-N-(1-methylbutyl)-benzamide]",,0%,
N=C(N)c1ccc2cc(OC(=O)c3ccc(N=C(N)N)cc3)ccc2c1 [Nafamostat],,0%,
CCOCOC[C@H](C[C@H](C)C(=O)NO)NC(=O)c1ccc(Oc2ccccc2)cc1 [ONO-4817],,,Shedding inhibition Non-stim. ([3]; 100 μM compound): + (20–50); Shedding inhibition Stimulated ([1]; 100 μM compound): +/− (<20)
"CC(C)[C@H](NS(=O)(=O)c1ccc(-c2ccc(Br)cc2)cc1)C(=O)O [PD166793, (S)-2-(4′-Bromo-biphenyl-4-sulfonylamino)-3-methyl-butyric acid hydrate]",,0%,
O=S(=O)(F)Cc1ccccc1 [PMSF],− (0% inhibition),,
CC(C)CC(=O)N[C@H](C(=O)N[C@H](C(=O)N[C@@H](CC(C)C)[C@@H](O)CC(=O)N[C@@H](C)C(=O)N[C@@H](CC(C)C)[C@@H](O)CC(=O)O)C(C)C)C(C)C [Pepstatin A] (Isovaleryl-VV[Sta]A[Sta]-OH),,0%,
O=S(=O)(CC1CS1)c1ccc(Oc2ccccc2)cc1 (stereo not shown) [SB-3CT],− (0% inhibition),,
CC(C)C[C@H](CC(=O)NO)C(=O)N[C@@H](Cc1ccc2ccccc2c1)C(=O)N[C@@H](C)C(N)=O [TAPI-0],++ (>50%),,accumulation of infected CD4−/CD62L− T cells (loss of CD62L) ([2]; HIV-1BAL infected cells): did not inhibit the accumulation; effect on HIV-1BAL infection (intracellular p24) [2]: fail to significantly suppress the viral infections
CC(C)C[C@H](CC(=O)NO)C(=O)N[C@@H](Cc1ccc2ccccc2c1)C(=O)N[C@@H](C)C(=O)NCCN [TAPI-1],++ (>50%),,
CC(C)C[C@H](CC(=O)NO)C(=O)N[C@H](C(=O)N[C@@H](C)C(=O)NCCN)C(C)(C)C [TAPI-2],++ (>50%),,
"Cc1cc(CCC[C@H](CC(=O)NO)C(=O)N[C@H](C(=O)N[C@H](C)c2ccccc2)C(C)(C)C)ccc1-c1ccccc1 [UK-356618, (2R)-N1-[(1S)-2,2-Dimethyl-1-({[(1R)-1-phenylethyl]amino}carbonyl)propyl]-2-{3-[(3-methyl-4-phenyl)-phenyl]propyl}-(N4-hydroxy)butanediamide]",− (0% inhibition),,Shedding inhibition Non-stim. ([3]; 10 μM compound): − (0% inhibition)
Cc1ccnc2c1NC(=O)c1cccnc1N2C1CC1 [nevirapine],,,effect on CD62L shedding from stimulated PBMC [1]: did not inhibit CD62L shedding
Cc1nnc(C(=O)NC(C)(C)c2nc(C(=O)NCc3ccc(F)cc3)c(O)c(=O)n2C)o1 [raltegravir],,,effect on CD62L shedding from stimulated PBMC [1]: did not inhibit CD62L shedding
Aprotinin,− (0% inhibition),,
Cystatin,− (0% inhibition),,
TAPI,,,effect on CD62L shedding / soluble CD62L [1]: suppressed CD62L shedding
